According to patent US10004701B2, “Methods and compositions for treating infection” (UNIVERSITY OF ROCHESTER, priority 2012, dated 2018):
Counter-ions that a name gives are not always drawn. Like-named read-outs stand apart in the source and are kept apart here.

What was measured:
Test in all cases: AK assay 384-well format, Prestwick library screening
E. faecium = format: cell-based, Enterococcus faecium; conditions: 50 μM final drug concentration; for fold induction at 50 µM: Enterococcus faecium, 3 h
[1] = test system: S. aureus strain USA300-0114; format: cell-based, Staphylococcus aureus; conditions: 50 μM final drug concentration; for fold induction at 50 µM: Staphylococcus aureus, USA300, 3 h
K. pneumoniae = format: cell-based, Klebsiella pneumoniae; conditions: 50 μM final drug concentration; for fold induction at 50 µM: Klebsiella pneumoniae, 3 h
[2] = test system: A. baumannii strain 98-37-09; format: cell-based, Acinetobacter baumannii; conditions: 50 μM final drug concentration; for fold induction at 50 µM: Acinetobacter baumannii, 983709, 3 h
P. aeruginosa = format: cell-based, Pseudomonas aeruginosa; conditions: 50 μM final drug concentration; for fold induction at 50 µM: Pseudomonas aeruginosa, 3 h
E. cloacae = format: cell-based, Enterobacter cloacae; conditions: 50 μM final drug concentration; for fold induction at 50 µM: Enterobacter cloacae, 3 h
E. coli = format: cell-based, Escherichia coli; conditions: 50 μM final drug concentration; for fold induction at 50 µM: Escherichia coli, 3 h
[3] = planktonic, cutoff for positive 3-fold increase, read-out: AK-based Prestwick Library Screening Results, E. faecium (fold increase in extracellular AK activity)
[4] = planktonic, cutoff for positive 3-fold increase, read-out: AK-based Prestwick Library Screening Results, S. aureus (fold increase in extracellular AK activity)
[5] = planktonic, cutoff for positive 3-fold increase, read-out: AK-based Prestwick Library Screening Results, K. pneumoniae (fold increase in extracellular AK activity)
[6] = planktonic, cutoff for positive 3-fold increase, read-out: AK-based Prestwick Library Screening Results, A. baumannii (fold increase in extracellular AK activity)
[7] = planktonic, cutoff for positive 3-fold increase, read-out: AK-based Prestwick Library Screening Results, P. aeruginosa (fold increase in extracellular AK activity)
[8] = planktonic, cutoff for positive 3-fold increase, read-out: AK-based Prestwick Library Screening Results, E. cloacae (fold increase in extracellular AK activity)
[9] = planktonic, cutoff for positive 3-fold increase, read-out: AK-based Prestwick Library Screening Results, E. coli (fold increase in extracellular AK activity)
[10] = cutoff for positive-scoring molecules 3-fold increase, read-out: AK-based Prestwick Library Screening Results, E. faecium (fold increase in extracellular AK activity)
[11] = cutoff for positive-scoring molecules 3-fold increase, read-out: AK-based Prestwick Library Screening Results, S. aureus (fold increase in extracellular AK activity)
[12] = cutoff for positive-scoring molecules 3-fold increase, read-out: AK-based Prestwick Library Screening Results, K. pneumoniae (fold increase in extracellular AK activity)
[13] = cutoff for positive-scoring molecules 3-fold increase, read-out: AK-based Prestwick Library Screening Results, A. baumannii (fold increase in extracellular AK activity)
[14] = cutoff for positive-scoring molecules 3-fold increase, read-out: AK-based Prestwick Library Screening Results, P. aeruginosa (fold increase in extracellular AK activity)
[15] = cutoff for positive-scoring molecules 3-fold increase, read-out: AK-based Prestwick Library Screening Results, E. cloacae (fold increase in extracellular AK activity)
[16] = cutoff for positive-scoring molecules 3-fold increase, read-out: AK-based Prestwick Library Screening Results, E. coli (fold increase in extracellular AK activity)
[17] = planktonic, cutoff for positive-scoring molecules 3-fold increase, read-out: AK-based Prestwick Library Screening Results, E. faecium (fold increase in extracellular AK activity)
[18] = planktonic, cutoff for positive-scoring molecules 3-fold increase, read-out: AK-based Prestwick Library Screening Results, S. aureus (fold increase in extracellular AK activity)
[19] = planktonic, cutoff for positive-scoring molecules 3-fold increase, read-out: AK-based Prestwick Library Screening Results, K. pneumoniae (fold increase in extracellular AK activity)
[20] = planktonic, cutoff for positive-scoring molecules 3-fold increase, read-out: AK-based Prestwick Library Screening Results, A. baumannii (fold increase in extracellular AK activity)
[21] = planktonic, cutoff for positive-scoring molecules 3-fold increase, read-out: AK-based Prestwick Library Screening Results, P. aeruginosa (fold increase in extracellular AK activity)
[22] = planktonic, cutoff for positive-scoring molecules 3-fold increase, read-out: AK-based Prestwick Library Screening Results, E. cloacae (fold increase in extracellular AK activity)
[23] = planktonic, cutoff for positive-scoring molecules 3-fold increase, read-out: AK-based Prestwick Library Screening Results, E. coli (fold increase in extracellular AK activity)
[24] = 384-well format, cutoff for positive-scoring molecules 3-fold increase

## CC[C@@H]1C(=O)OC[C@@H]1Cc1cncn1C [Pilocarpine nitrate]
E. faecium; [3]
  fold induction at 50 µM: 1.1
[1]; [4]
  fold induction at 50 µM: 1.3
K. pneumoniae; [5]
  fold induction at 50 µM: 0.9
[2]; [6]
  fold induction at 50 µM: 1
P. aeruginosa; [7]
  fold induction at 50 µM: 1
E. cloacae; [8]
  fold induction at 50 µM: 1.5
E. coli; [9]
  fold induction at 50 µM: 1

## C=CCOC(Cn1ccnc1)c1ccc(Cl)cc1Cl (stereo not drawn) [Enilconazole]
E. faecium; [10]
  fold induction at 50 µM: 1.1
[1]; [11]
  fold induction at 50 µM: 0.4
K. pneumoniae; [12]
  fold induction at 50 µM: 0.5
[2]; [13]
  fold induction at 50 µM: 0.4
P. aeruginosa; [14]
  fold induction at 50 µM: 0.4
E. cloacae; [15]
  fold induction at 50 µM: 0.4
E. coli; [16]
  fold induction at 50 µM: 0.5

## Cc1cccc(CN2CCN(C(c3ccccc3)c3ccc(Cl)cc3)CC2)c1 (stereo not drawn) [Meclozine dihydrochloride]
E. faecium; [3]
  fold induction at 50 µM: 1.2
[1]; [4]
  fold induction at 50 µM: 2.1
K. pneumoniae; [5]
  fold induction at 50 µM: 0.9
[2]; [6]
  fold induction at 50 µM: 1.9
P. aeruginosa; [7]
  fold induction at 50 µM: 1.2
E. cloacae; [8]
  fold induction at 50 µM: 1.4
E. coli; [9]
  fold induction at 50 µM: 1.2

## N#Cc1ccc(C(c2ccc(C#N)cc2)n2cncn2)cc1 [Letrozole]
E. faecium; planktonic E. faecium, positive cutoff 3-fold increase, read-out: AK-based Prestwick library screening result, E. faecium (fold increase in extracellular AK activity)
  fold induction at 50 µM: 1
[1]; planktonic S. aureus, positive cutoff 3-fold increase, read-out: AK-based Prestwick library screening result, S. aureus (fold increase in extracellular AK activity)
  fold induction at 50 µM: 1.2
K. pneumoniae; planktonic K. pneumoniae, positive cutoff 3-fold increase, read-out: AK-based Prestwick library screening result, K. pneumoniae (fold increase in extracellular AK activity)
  fold induction at 50 µM: 1.1
[2]; planktonic A. baumannii, positive cutoff 3-fold increase, read-out: AK-based Prestwick library screening result, A. baumannii (fold increase in extracellular AK activity)
  fold induction at 50 µM: 1.3
P. aeruginosa; planktonic P. aeruginosa, positive cutoff 3-fold increase, read-out: AK-based Prestwick library screening result, P. aeruginosa (fold increase in extracellular AK activity)
  fold induction at 50 µM: 1
E. cloacae; planktonic E. cloacae, positive cutoff 3-fold increase, read-out: AK-based Prestwick library screening result, E. cloacae (fold increase in extracellular AK activity)
  fold induction at 50 µM: 1.4
E. coli; planktonic E. coli, positive cutoff 3-fold increase, read-out: AK-based Prestwick library screening result, E. coli (fold increase in extracellular AK activity)
  fold induction at 50 µM: 1.2

## C/C(=C(\CCOP(=O)(O)O)SC(=O)c1ccccc1)N(C=O)Cc1cnc(C)nc1N [Benfotiamine]
E. faecium; [17]
  fold induction at 50 µM: 0.9
[1]; [18]
  fold induction at 50 µM: 0.5
K. pneumoniae; [19]
  fold induction at 50 µM: 0.6
[2]; [20]
  fold induction at 50 µM: 0.7
P. aeruginosa; [21]
  fold induction at 50 µM: 0.6
E. cloacae; [22]
  fold induction at 50 µM: 0.8
E. coli; [23]
  fold induction at 50 µM: 0.7

## Alverine citrate salt
E. faecium; [24]
  AK-based Prestwick Library Screening Results, E. faecium (increase in extracellular AK activity): 0.9
[1]; [24]
  AK-based Prestwick Library Screening Results, S. aureus (increase in extracellular AK activity): 0.7
K. pneumoniae; [24]
  AK-based Prestwick Library Screening Results, K. pneumoniae (increase in extracellular AK activity): 0.7
[2]; [24]
  AK-based Prestwick Library Screening Results, A. baumannii (increase in extracellular AK activity): 0.9
P. aeruginosa; [24]
  AK-based Prestwick Library Screening Results, P. aeruginosa (increase in extracellular AK activity): 0.8
E. cloacae; [24]
  AK-based Prestwick Library Screening Results, E. cloacae (increase in extracellular AK activity): 0.9
E. coli; [24]
  AK-based Prestwick Library Screening Results, E. coli (increase in extracellular AK activity): 0.9

## Nc1ccc(S(=O)(=O)c2ccc(N)cc2)cc1 [Dapsone]
E. faecium; 384-well format, cutoff for positive-scoring molecules 3-fold increase, read-out: AK-based Prestwick Library Screening Results, E. faecium (increase in extracellular AK activity)
  fold induction at 50 µM: 0.9
[1]; 384-well format, cutoff for positive-scoring molecules 3-fold increase, read-out: AK-based Prestwick Library Screening Results, S. aureus (increase in extracellular AK activity)
  fold induction at 50 µM: 0.6
K. pneumoniae; 384-well format, cutoff for positive-scoring molecules 3-fold increase, read-out: AK-based Prestwick Library Screening Results, K. pneumoniae (increase in extracellular AK activity)
  fold induction at 50 µM: 0.7
[2]; 384-well format, cutoff for positive-scoring molecules 3-fold increase, read-out: AK-based Prestwick Library Screening Results, A. baumannii (increase in extracellular AK activity)
  fold induction at 50 µM: 1.3
P. aeruginosa; 384-well format, cutoff for positive-scoring molecules 3-fold increase, read-out: AK-based Prestwick Library Screening Results, P. aeruginosa (increase in extracellular AK activity)
  fold induction at 50 µM: 0.8
E. cloacae; 384-well format, cutoff for positive-scoring molecules 3-fold increase, read-out: AK-based Prestwick Library Screening Results, E. cloacae (increase in extracellular AK activity)
  fold induction at 50 µM: 1.1
E. coli; 384-well format, cutoff for positive-scoring molecules 3-fold increase, read-out: AK-based Prestwick Library Screening Results, E. coli (increase in extracellular AK activity)
  fold induction at 50 µM: 0.8

## CCOC(=O)[C@H](CCc1ccccc1)N[C@@H](C)C(=O)N1CCC[C@H]1C(=O)O [Enalapril maleate]
E. faecium; planktonic E. faecium, 384-well, […], read-out: AK-based Prestwick Library Screening Results: E. faecium (increase in extracellular AK activity)
  fold induction at 50 µM: 1.1
[1]; planktonic S. aureus, 384-well, […], read-out: AK-based Prestwick Library Screening Results: S. aureus (increase in extracellular AK activity)
  fold induction at 50 µM: 1.3
K. pneumoniae; planktonic K. pneumoniae, 384-well, […], read-out: AK-based Prestwick Library Screening Results: K. pneumoniae (increase in extracellular AK activity)
  fold induction at 50 µM: 1.2
[2]; planktonic A. baumannii, 384-well, […], read-out: AK-based Prestwick Library Screening Results: A. baumannii (increase in extracellular AK activity)
  fold induction at 50 µM: 1.3
P. aeruginosa; planktonic P. aeruginosa, 384-well, […], read-out: AK-based Prestwick Library Screening Results: P. aeruginosa (increase in extracellular AK activity)
  fold induction at 50 µM: 1.2
E. cloacae; planktonic E. cloacae, 384-well, […], read-out: AK-based Prestwick Library Screening Results: E. cloacae (increase in extracellular AK activity)
  fold induction at 50 µM: 1.3
E. coli; planktonic E. coli, 384-well, […], read-out: AK-based Prestwick Library Screening Results: E. coli (increase in extracellular AK activity)
  fold induction at 50 µM: 1.2

## C[N+]1(C)[C@@H]2CC[C@H]1C[C@@H](OC(=O)C(CO)c1ccccc1)C2 (stereo partly drawn) [Methylatropine nitrate]
E. faecium; [17]
  fold induction at 50 µM: 1
[1]; [18]
  fold induction at 50 µM: 0.6
K. pneumoniae; [19]
  fold induction at 50 µM: 0.6
[2]; [20]
  fold induction at 50 µM: 0.7
P. aeruginosa; [21]
  fold induction at 50 µM: 0.7
E. cloacae; [22]
  fold induction at 50 µM: 0.8
E. coli; [23]
  fold induction at 50 µM: 0.7

## NC(=O)CN1CCCC1=O [Piracetam]
E. faecium; [3]
  fold induction at 50 µM: 0.9
[1]; [4]
  fold induction at 50 µM: 1
K. pneumoniae; [5]
  fold induction at 50 µM: 1
[2]; [6]
  fold induction at 50 µM: 0.9
P. aeruginosa; [7]
  fold induction at 50 µM: 1.1
E. cloacae; [8]
  fold induction at 50 µM: 1.4
E. coli; [9]
  fold induction at 50 µM: 1.1

## CC[N+](C)(C)Cc1ccccc1Br [Bretylium tosylate]
E. faecium; [10]
  fold induction at 50 µM: 1
[1]; [11]
  fold induction at 50 µM: 1.3
K. pneumoniae; [12]
  fold induction at 50 µM: 1.1
[2]; [13]
  fold induction at 50 µM: 1.3
P. aeruginosa; [14]
  fold induction at 50 µM: 1.2
E. cloacae; [15]
  fold induction at 50 µM: 1.6
E. coli; [16]
  fold induction at 50 µM: 1.3

## CCOc1ccc2c(c1)C(C)=CC(C)(C)N2 [Ethoxyquin]
E. faecium; [17]
  fold induction at 50 µM: 0.9
[1]; [18]
  fold induction at 50 µM: 1.1
K. pneumoniae; [19]
  fold induction at 50 µM: 0.9
[2]; [20]
  fold induction at 50 µM: 0.9
P. aeruginosa; [21]
  fold induction at 50 µM: 1.1
E. cloacae; [22]
  fold induction at 50 µM: 1.4
E. coli; [23]
  fold induction at 50 µM: 1.1
